Series [1] deals with HT-22. Put plainly: Neuroprotective activity in mouse HT22 cells assessed as protection against glutamate-induced toxicity at 1 uM after 24 hrs by MTT assay in presence of GW-9662. Type of series: functional, cell-based. Background: Tetrazolium dyes change colour on reduction, which living cells bring about.
Series [2] deals with HT-22. Put plainly: Neuroprotective activity in mouse HT22 cells assessed as protection against glutamate-induced toxicity after 24 hrs by MTT assay. Type of series: functional, cell-based. As to conditions: HT-22, 24 h.
For series [3], the system named is HT-22. Put plainly: Inhibition of glutamate-induced decrease in GSH level in mouse HT22 cells at 1 uM after 24 hrs. Type of series: functional, cell-based.
Series [4] is described as follows: Cytotoxicity against mouse hippocampal HT22 cells at 1 uM after 24 hrs by MTT assay. It is filed as cell-based, Hippocampus. The note with it: ht-22, 24 h.
Series [5] concerns HT-22. Briefly: Neuroprotective activity in mouse HT22 cells assessed as protection against glutamate-induced toxicity at 0.5 to 1 uM after 24 hrs by MTT assay relative to control. Type of series: functional.

Structures are written as SMILES. Calls of active or inactive are those of the source. No cut-off for these calls is given here.

As for `COc1cc(/C=C/c2cc(/C=C/c3ccc(O)c(OC)c3)n(-c3ccccc3)n2)ccc1O`, the result in the series with HT-22 [1] was Active.
As a reminder, the EC50 is the concentration that produces a half-maximal response. Consider `Oc1ccc(CN(Cc2ccc(C(F)(F)F)cc2)Cc2ccc(O)c3ncccc23)c2cccnc12`, for which the concentration giving a half-maximal response (EC50) in the series on HT-22 [2] was determined as 621 nM. Also, the outcome in the series with HT-22 [3] was Active. In addition, in series [4], the Activity amounted to 33.7%. Further, the “%max” value with HT-22 [5] was found to be 100%. In addition, the outcome in the series on HT-22 [1] was inactive.
As to `Cc1ccc(CN(Cc2ccc(O)c3ncccc23)Cc2ccc(O)c3ncccc23)cc1`, the half-maximal effective concentration (EC50) in the series with HT-22 [2] stood at 125 nM. The result with HT-22 [3] was Active. Also, the Activity in series [4] is listed as 39.4%. The “%max” value in the series on HT-22 [5] is reported as 100%. Also, the outcome with HT-22 [1] was inactive.
As for `Oc1ccc(CN(Cc2cccc(C(F)(F)F)c2)Cc2ccc(O)c3ncccc23)c2cccnc12`, the half-maximal effective concentration (EC50) in the series with HT-22 [2] stood at 168 nM. Further, the result in the series on HT-22 [3] was Active. In series [4], this molecule gave an Activity of 40.7%. For the same molecule, the “%max” value in the series with HT-22 [5] was found to be 99%. Moreover, the result in the series with HT-22 [1] was inactive.
Consider `O=C(Nc1ccccc1)c1cc([N+](=O)[O-])ccc1Cl`, for which the outcome in the series with HT-22 [1] was inactive.
In the case of `Cc1c(C)c2c(c(C)c1O)CCC(C)(COc1ccc(CC3SC(=O)NC3=O)cc1)O2` (stereo not drawn), the result in the series with HT-22 [3] was inactive.
In the case of `Oc1ccc(CN(Cc2cccs2)Cc2ccc(O)c3ncccc23)c2cccnc12`, the EC50 in the series on HT-22 [2] worked out at 383 nM. For the same molecule, in the series on HT-22 [3], the outcome was Active. The molecule also yielded an Activity in series [4] of 34%. Also, the “%max” value in the series with HT-22 [5] was 97%. Further, the result with HT-22 [1] was inactive.

These data come from ChEMBL document CHEMBL1287699, “N,N-Bis-(8-hydroxyquinoline-5-yl methyl)-benzyl substituted amines (HQNBA): peroxisome proliferator-activated receptor (PPAR-γ) agonists with neuroprotective properties” (Bioorg Med Chem Lett, 2010).
